{"source": "paper PMC9982591", "about": "“Inflammation‐Controlled Anti‐Inflammatory Hydrogels” (Advanced Science, 2022)", "key": {"[1]": {"test_system": "extracellular CypA", "settings": "cited from earlier work"}, "[2]": {"biological_target": "calcineurin (Homo sapiens, UniProt P62937+P63098+Q08209)", "sequence (P63098 whole entry, other chains not shown)": "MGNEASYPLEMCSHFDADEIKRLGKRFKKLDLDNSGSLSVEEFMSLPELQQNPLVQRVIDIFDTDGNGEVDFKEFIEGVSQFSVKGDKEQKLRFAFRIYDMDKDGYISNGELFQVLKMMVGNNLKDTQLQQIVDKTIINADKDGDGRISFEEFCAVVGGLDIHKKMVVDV", "sequence (P62937 whole entry, other chains not shown)": "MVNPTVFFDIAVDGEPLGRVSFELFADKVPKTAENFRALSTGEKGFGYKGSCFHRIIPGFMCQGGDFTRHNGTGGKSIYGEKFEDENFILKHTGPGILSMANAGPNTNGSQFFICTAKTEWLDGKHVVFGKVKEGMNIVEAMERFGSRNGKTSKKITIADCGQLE"}, "[3]": {"biological_target": "cyclophilin A (CypA) (Homo sapiens, UniProt P62937)", "sequence (P62937 whole entry)": "as the sequence (P62937 whole entry, other chains not shown) above", "experiment": "PPIase inhibition", "format": "biochemical", "settings": "PPIase assay, Table S2", "experimental": "From the activity against the inhibitor concentrations, the IC50 and the K i value were determined with nonlinear curve fitting according to the models of Morrison^[ [41] ^] and Murphy.^[ [42] ^]"}, "[4]": {"biological_target": "T1, human neutrophil elastase (Homo sapiens, UniProt P08246)", "T1 construct": "purchased Merck/Calbiochem", "T1 sequence (P08246 30-267)": "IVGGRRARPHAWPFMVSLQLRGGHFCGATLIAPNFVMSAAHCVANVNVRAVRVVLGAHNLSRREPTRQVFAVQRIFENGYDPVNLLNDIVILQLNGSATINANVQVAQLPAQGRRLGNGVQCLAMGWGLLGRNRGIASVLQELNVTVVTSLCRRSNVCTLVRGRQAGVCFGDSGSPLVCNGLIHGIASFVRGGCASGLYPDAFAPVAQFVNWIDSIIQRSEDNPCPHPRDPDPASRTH", "experiment": "Enzymatic cleavage of elastase-responsive peptide and PEG-AAPV conjugate", "format": "biochemical", "settings": "7 mmol/L AAPV peptide, 20 nmol/L human neutrophil elastase, PBS pH 7.4, 37 °C, analytical HPLC", "experimental": "starPEG-peptide conjugate with full starPEG arm saturation by the leukocyte elastas e responsive AAPV peptide was added to the reaction solution in 4-fold excess, to finally result […]\nThe reaction mixture was directly used for hydrogel format ion.\nS1.3. Supplement –Basic analysis\nEnzymatic clea vage of el astase- responsive peptide and PEG-AAPV conjug ate To analyze leuko cyte elastase mediated hydrolysis of the responsive peptide and the corresponding conjugate, 7 mmol L -1 AAPV peptide or 0.7 mmol L -1 starPEG-AAPV conjugate w er e incub ated with 20 nmol L -1 human neutrophil el astase in PBS, pH 7.4 at 37°C.\nThe enzymatic reaction was evaluated after indicated timepoints by analytical HPLC, followed by integral anal ysis of the peak signals for educt and cleavage products.\nInhibition of leukocyte el astaseby heparin\nTo evaluate the influence of the hydrogel component heparin on the activity of leukocyte elastase, samples with heparin sodium salt concentrations of 0.001- 1 000µg mL -1 were prepared in 50mmol L -1 Tris-HCl pH 7.4 supplemented with 100mmol L -1 NaCl and 0.1% BSA and pre-incubated with 10nmol L -1 leukocyte elastase for 5 min. […]"}, "[5]": {"test_system": "complement system", "experiment": "Complement activation in whole blood with zymosan (C5a ELISA)", "format": "cell-based, human", "settings": "zymosan 10 µg/mL, 30 min, 37 °C, 4W9A alone and conjugated to cleavage fragment (Figure S4, 10 µmol/L, n = 3)", "experimental": "Figure 3 Cleavage of inflammation‐responsive hydrogels in an in vitro inflammation model and assessment of the anti‐inflammatory effects of the released drugs. A) For hydrogel cleavage, isolated polymorphonuclear granulocytes (PMN) are activated with complement‐opsonized zymosan (OPZ) in cell culture media and incubated with the hydrogel over 2 h at 37 °C. The cell‐free supernatant containing the released bioactive is used to test the anti‐inflammatory effect in the corresponding system. B) 4W9A: Measurement of complement activation in whole blood activated with zymosan. C) PMX53: Activation of isolated PMN by zymosan activated serum, measured as CD11b expression (*P < 0.05, **P < 0.01 in t‐test).\nThe amount of Atto488 released from the hydrogel as a model drug was determined by fluorescence measurement at λ ex. = 485 nm/λ em. = 535 nm against an Atto488 standard. […] Cell activation was determined by flow cytometry using CD11b‐VioBlue staining (Biolegend) for isolated granulocytes and additionally CD14‐APC and CD41a‐FITC (both BD Biosciences, New Jersey, USA) for whole blood samples. Leukocyte elastase and C5a concentrations were determined using the commercial ELISA kits Hycult human elastase ELISA (Hycult Biotech, Uden, Netherlands) and C5a micro ELISA (DRG, Marburg, Germany) according to the manufactures instructions."}, "[6]": {"test_system": "leukocyte", "parameters": "method as in PMID 10354404", "settings": "specific for C5aR1; cited from earlier work"}, "[7]": {"biological_target": "C5a receptor (C5aR1 or CD88)", "settings": "C5a receptor inhibitor; read-out: IC50 of PMX53; cited from earlier work", "excerpt": "PMX53 is derived from the C‐terminus of the C5a fragment. Therefore, N‐terminal sequence extension by a glycine spacer and a cysteine group appeared possible without loss of activity.^[ [19], [30] ^] (Table S1, Supporting Information). The obtained peptide was linked to the elastase‐responsive hydrogel platform as an anti‐inflammatory feedback control system. The low IC50 concentration (IC50 = 20 nmol L^−1[ [19] ^]) allowed for a low functionalization degree at the hydrogel of only 2% of the starPEG‐AAPV‐arms."}, "[8]": {"test_system": "human leukocyte elastase", "experiment": "Inhibition of leukocyte elastase by heparin", "format": "biochemical", "settings": "U-shaped, heparin 0.01–5 µg/mL (≈0.002–1 U/mL); 10 nmol/L elastase, 250 µmol/L MeOSuc-Ala-Ala-Pro-Val-pNA, Tris-HCl pH 7.4, 100 mmol/L NaCl, 0.1% BSA, 5 min pre-incubation, 37 °C, 30 min, 405 nm; normalized to control without heparin; mean ± SD of n=2", "experimental": "Figure S2: Inhibition of leukocyte elastase by heparin. A concentration of 10 nmol L-1 human leukocyte elastase was used to cleave 250 µmol L -1 chromogenic substrate in the presence of different heparin concentrations. The substrate cleavage was monitored photometrically at a wavelength of 405nm by the release of p- nitroaniline from the chromogenic substrate methoxysuccinyl-Ala-Al a-Pro-V al-pNA over 30 min. Values were normalized to a cont rol sample without heparin; mean ± SD of n=2.\n(1 picture or pasted object on this page, not shown here) […]\nThe enzymatic reaction was evaluated after indicated timepoints by analytical HPLC, followed by integral anal ysis of the peak signals for educt and cleavage products. […]\nTo evaluate the influence of the hydrogel component heparin on the activity of leukocyte elastase, samples with heparin sodium salt concentrations of 0.001- 1 000µg mL -1 were prepared in 50mmol L -1 Tris-HCl pH 7.4 supplemented with 100mmol L -1 NaCl and 0.1% BSA and pre-incubated with 10nmol L -1 leukocyte elastase for 5 min. Subsequently, the cleavage of 250 µmol L-1 chromogenic substrate MeOSuc-Ala-Ala-Pro-V al-pNA by leukocyte elastase in the presence of the different heparin concentrations was measured as reaction kinetic at 37°C for 30min using the Spark TM 10M multimode microplate reader (Tecan) at 405 nm and c ompared to a cont rol without heparin."}, "[9]": {"test_system": "α1‐antitrypsin", "settings": "cited from earlier work", "excerpt": "(§1) The heparin component of the hydrogel matrix provides favorable additional anti‐inflammatory properties and interacts with the cleaving enzyme in different ways: Elastase has an anion binding site, which mediates binding to the DNA in neutrophil extracellular traps (NETs), to heparin and heparan sulfates, and also leads to accumulation at the hydrogel.^[ [21] ^] […] Additionally, direct inhibition of elastase acti ..."}, "[10]": {"test_system": "elastase", "settings": "cited from earlier work", "excerpt": "as §1"}}, "data": [{"molecule": "CC[C@@H]1NC(=O)[C@H]([C@H](O)[C@H](C)Cc2nc3cc(C(=O)O)ccc3[nH]2)N(C)C(=O)[C@H](C(C)C)N(C)C(=O)[C@H](CC(C)C)N(C)C(=O)[C@H](CC(C)C)N(C)C(=O)[C@@H](C)NC(=O)[C@H](C)NC(=O)[C@H](CC(C)C)N(C)C(=O)[C@H](C(C)C)NC(=O)[C@H](CC(C)C)N(C)C(=O)CN(C)C1=O", "note": "[MM284]", "values": [{"measurement": "extracellular CypA inhibition / immunosuppression", "setting": "[1]", "result": "inhibits extracellular CypA, providing anti‐inflammatory without immunosuppressive activity"}, {"measurement": "calcineurin: concentration up to which no inhibition was found", "setting": "[2]", "result": "≥ 15", "unit": "µmol/L"}]}, {"molecule": "CC[C@@H]1NC(=O)[C@H]([C@H](O)[C@H](C)Cc2nc3cc(C(=O)N[C@H](CCC(=O)O)C(=O)N[C@H](CCC(=O)O)C(=O)N[C@H](CCC(=O)O)C(=O)N[C@H](CCC(=O)O)C(=O)N[C@H](CCC(=O)O)C(=O)N[C@H](CCC(=O)O)C(=O)NCC(=O)N[C@@H](CCCCN)C(=O)NCC(=O)N[C@@H](C)C(=O)N[C@@H](C)C(=O)N4CCC[C@H]4C(=O)N[C@H](C(=O)NCC(=O)NCC(=O)N[C@@H](CS)C(N)=O)C(C)C)ccc3[nH]2)N(C)C(=O)[C@H](C(C)C)N(C)C(=O)[C@H](CC(C)C)N(C)C(=O)[C@H](CC(C)C)N(C)C(=O)[C@@H](C)NC(=O)[C@H](C)NC(=O)[C@H](CC(C)C)N(C)C(=O)[C@H](C(C)C)NC(=O)[C@H](CC(C)C)N(C)C(=O)CN(C)C1=O", "note": "[MM623]", "values": [{"measurement": "CypA inhibition compared with MM284", "setting": "[3]", "result": "comparable to MM284"}, {"measurement": "calcineurin: concentration up to which no inhibition was found", "setting": "[2]", "result": "≥ 20", "unit": "µmol/L"}]}, {"molecule": "H2N-GWGAAPV-↑-RGGCG-CONH2", "values": [{"measurement": "cleavage rate of the free peptide by elastase", "setting": "[4]", "result": 0.36, "unit": "s⁻¹"}]}, {"molecule": "Mal-l[CVWQDWGAHRC]-T-CONH2 (disulfide) [4W9A]", "values": [{"measurement": "inhibitor concentration that should be exceeded for complement inhibition", "setting": "[5]", "result": "> 2", "unit": "µmol/L"}]}, {"molecule": "PMX53", "values": [{"measurement": "effect on leukocyte stimulation by cytokines, leukotriene B4, endotoxins, or formylated peptides", "setting": "[6]", "result": "has no effect on leukocyte stimulation by cytokines, leukotriene B4, endotoxins, or formylated peptides"}, {"measurement": "IC50", "setting": "[7]", "result": 20, "unit": "nM"}]}, {"molecule": "heparin", "values": [{"measurement": "suppression of elastase activity to (residual activity)", "setting": "[8]", "result": "about 50%"}, {"measurement": "α1-antitrypsin activity", "setting": "[9]", "result": "decreases the activity of α1‐antitrypsin"}, {"measurement": "elastase activity inhibition by heparin binding", "setting": "[10]", "result": "direct inhibition of elastase activity by heparin binding has been reported"}]}]}
